Measured values published in patent publication US11478558B2, “Prostate-specific membrane antigen targeted high-affinity agents for endoradiotherapy of prostate cancer” (The Johns Hopkins University, priority 2017, dated 2022).

Assays:
[1] = Octanol/water partition coefficient; format: physicochemical; conditions: Table 1
[2] = target: PSMA (Homo sapiens (Human), UniProt Q04609); experiment: PSMA binding affinity
[3] = tested on: PSMA(+) PC3 PIP cells; experiment: Cell uptake, cell surface binding and internalization in PSMA(+) PC3 PIP cells; format: cell-based, human
[4] = tested on: PSMA+ PC3 PIP tumors; experiment: Radiopharmaceutical therapy in PC3 PIP flank tumor growth delay model; format: in vivo, NOD/SCID mice
Method: A pilot treatment study using NOD/SCID mice (n=10 per group) bearing PSMA+ PC3 PIP tumors with a single intravenous dose of 111 MBq (3 mCi) of agents ^177Lu-PSMA-617, ^177Lu-1, ^177Lu-3 and ^177Lu-5 and the control group (with saline treatment) were performed (Table 8). Volume of the all control group mice reached >5-fold of their initial tumor volume within 14 days. Mouse euthanized for treated group within 4 weeks of post-injection was mainly due to sudden body weight loss and not related to tumor growth. […] The difference among treatment groups was statistically significant (P=0.002) by the log-rank test compared to the untreated group. […] After 8-weeks, three mice from each treated group were used for detailed blood analysis and necropsy study. All animals underwent radiotherapy study had normal creatinine (0.3-0.4 mg/dL) and blood urea nitrogen levels. […] Additionally, a significant lowering of platelet for all three treated mice from ^177Lu-PSMA-617 compared control group and other treated groups.
Median survival for the ^177Lu-PSMA-617 was 133 days vs. 234 days for ^177Lu-1.
The remaining treated mice survived tumor-free for 10 months and were evaluated for toxicity.
Antitumor efficacy studies were performed in PC3 PIP flank tumor growth delay model to evaluate the therapeutic efficacy of a single dose intravenous injection of ^177Lu-L1, ^177Lu-L3, ^177Lu-L5 and ^177Lu-PSMA-617 vs. saline. This was a head-to-head comparison study and same batch of tumor-bearing mice and radioactivity. The study was commenced 14-18 days post-inoculation of the xenografts, when all the mice had tumor volume of about ˜60-85 mm^3 (Table 8). All the living mice were monitored for 8 weeks to monitor the growth delay. Mice body weight and tumor volume were monitored every 3 days throughout the experiment. Endpoint criteria defined by the institute ACUC was weight loss≥15%, a tumor volume>1800 mm^3, active ulceration of the tumor or abnormal behavior indicating pain or unease. After 8-weeks, three mice from each group were submitted for detail necropsy and blood analysis. Mice group treated with ^177Lu-1 and ^177Lu-PSMA-617 were continued to monitor until the endpoint. These definitions were also used for Kaplan-Meier analysis. The probability of reaching 5 times the initial tumor volume was characterized using Kaplan-Meier curves, and comparison was performed using the log-rank test. The formula used for calculation of tumor volume was V=width^2×length/2. Toxicity of the ^177Lu-treatment groups after 8-weeks and in healthy CD-1 (n=3) mice treated with 111 MBq was evaluated by pathologic examination at the Johns Hopkins Pathology Core facility with serum metabolic panel, blood counts, and full necropsy including detailed histopathology of kidneys, salivary glands and lacrimal glands.

[5] = Blood analysis and necropsy after radiotherapy; format: in vivo, NOD/SCID mice; conditions: one-year post-treatment in tumor-free mice, 111 MBq
[6] = tested on: PSMA(−) PC3 flu cells; experiment: Cell uptake in PSMA(−) PC3 flu cells; format: cell-based, human
[7] = tested on: PSMA+ PC3 PIP cells; experiment: Clonogenic cell survival assay in PSMA+ PC3 PIP cells; format: cell-based, human
[8] = tested on: PSMA(+) PC3 PIP and PSMA(−) PC3 flu tumor xenografts; experiment: Biodistribution of 177Lu compounds (Example 5)
[9] = tested on: PSMA(+) tumors and normal tissues; experiment: Self-blocking (receptor blockade) biodistribution; format: in vivo, mouse; conditions: at 10-fold kidney blockade
Description: Development of receptor blockade for normal organs. The blocking effect of 1 was quantified in normal tissues using ^177Lu-1. A drastic reduction of renal uptake was observed while maintaining high uptake in PSMA(+) tumors (FIG. 12). […] Blocking strategies. […] These daughters, once formed, are unlikely to associate with the chelate construct due to high atomic recoil-energy as a result of α-decay. Without wishing to be bound to any one particular theory, it is thought that acute salivary gland toxicity caused by ^225Ac-PSMA-617 is most likely due to PSMA-based internalization of the agent followed by daughter release in striated duct or acini. Both biodistribution data and α-camera imaging will be used to interpret the data. Different pharmacologic agents will be evaluated to avoid renal and salivary gland radio toxicity. […]

PSMA, sequence (Q04609 whole entry): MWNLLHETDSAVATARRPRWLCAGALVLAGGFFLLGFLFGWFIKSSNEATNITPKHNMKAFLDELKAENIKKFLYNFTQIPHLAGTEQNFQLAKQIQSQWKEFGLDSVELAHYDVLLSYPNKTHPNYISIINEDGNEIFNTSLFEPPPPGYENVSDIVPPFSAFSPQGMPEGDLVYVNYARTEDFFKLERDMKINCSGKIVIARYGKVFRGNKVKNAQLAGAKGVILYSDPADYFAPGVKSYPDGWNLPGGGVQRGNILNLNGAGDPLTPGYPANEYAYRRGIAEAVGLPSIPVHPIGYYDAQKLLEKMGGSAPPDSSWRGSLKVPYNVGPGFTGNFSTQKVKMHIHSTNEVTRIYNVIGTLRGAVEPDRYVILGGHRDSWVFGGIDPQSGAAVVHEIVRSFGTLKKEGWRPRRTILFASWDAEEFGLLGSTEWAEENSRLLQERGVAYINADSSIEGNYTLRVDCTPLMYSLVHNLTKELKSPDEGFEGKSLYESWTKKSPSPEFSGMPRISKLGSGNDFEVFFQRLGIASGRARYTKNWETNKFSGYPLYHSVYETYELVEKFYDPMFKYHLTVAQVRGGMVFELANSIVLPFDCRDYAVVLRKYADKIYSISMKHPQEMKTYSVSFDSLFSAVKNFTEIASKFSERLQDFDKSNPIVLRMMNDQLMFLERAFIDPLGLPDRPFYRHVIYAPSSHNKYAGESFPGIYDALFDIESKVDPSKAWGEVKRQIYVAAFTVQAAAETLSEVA

Structure (SMILES): O=C(O)CC[C@H](NC(=O)N[C@@H](CCCCN(Cc1ccc(Br)cc1)C(=O)CCCCNC(=S)Nc1ccc(CC2CN(CC(=O)O)CCN(CC(=O)O)CCN(CC(=O)O)CCN2CC(=O)O)cc1)C(=O)O)C(=O)O (stereo partly drawn) [Ligand 1, (13S,17S)-8-(4-bromobenzyl)-7,15-dioxo-1-((4-((1,4,7,10-tetrakis(carboxymethyl)-1,4,7,10-tetraazacyclododecan-2-yl)methyl)phenyl)amino)-1-thioxo-2,8,14,16-tetraazanonadecane-13,17,19-tricarboxylic acid]
- LogPoct/water [1]: −3.0

Structure (SMILES): O=C(O)CC[C@H](NC(=O)N[C@@H](CCCCN(Cc1ccc(Br)cc1)C(=O)CCCCNC(=O)CN1CCN(CC(=O)O)CCN(CC(=O)O)CCN(CC(=O)O)CC1)C(=O)O)C(=O)O [Ligand 2, (14S,18S)-9-(4-Bromobenzyl)-2,8,16-trioxo-1-(4,7,10-tris(carboxymethyl)-1,4,7,10-tetraazacyclododecan-1-yl)-3,9,15,17-tetraazaicosane-14,18,20-tricarboxylic acid]
- LogPoct/water [1]: −3.53
- IC50 ([2]; Table 1): 0.64 nM
- Ki ([2]; Table 1): 1.28 nM

Structure (SMILES): O=C(O)CC[C@H](NC(=O)N[C@@H](CCCCNC(=O)CCCCNC(=S)Nc1ccc(CC2CN(CC(=O)O)CCN(CC(=O)O)CCN(CC(=O)O)CCN2CC(=O)O)cc1)C(=O)O)C(=O)O (stereo partly drawn) [Ligand 3, (13S,17S)-7,15-dioxo-1-((4-((1,4,7,10-tetrakis(carboxymethyl)-1,4,7,10-tetraazacyclododecan-2-yl)methyl)phenyl)amino)-1-thioxo-2,8,14,16-tetraazanonadecane-13,17,19-tricarboxylic acid]
- LogPoct/water [1]: −3.2
- IC50 ([2]; Table 1): 2.16 nM
- Ki ([2]; Table 1): 0.43 nM

Structure (SMILES): O=C(O)CC[C@H](NC(=O)N[C@@H](CCCCN(Cc1ccc(Br)cc1)C(=O)CCCCCCC(=O)NCCCCNC(=O)c1ccc(CNC(=O)CN2CCN(CC(=O)O)CCN(CC(=O)O)CCN(CC(=O)O)CC2)cc1)C(=O)O)C(=O)O [Ligand L5, (21S,25S)-16-(4-Bromobenzyl)-1,8,15,23-tetraoxo-1-(4-((2-(4,7,10-tris(carboxymethyl)-1,4,7,10-tetraazacyclododecan-1-yl)acetamido)methyl)phenyl)-2,7,16,22,24-pentaazaheptacosane-21,25,27-tricarboxylic acid]
- Specific Cell Surface Binding [3]: 36.65 ± 0.50 % IA/10^6 cells
- specific internalization [3]: 22.03 ± 0.60 % IA/10^6 cells
- Ki ([2]; Table 6, given as range): 0.46 to 0.63 nM

Structure (SMILES): O=C(O)CC[C@H](NC(=O)N[C@@H](CCCCN(Cc1ccc(Br)cc1)C(=O)CCCCNC(=S)Nc1ccc(CC2CN(CC(=O)O)CCN(CC(=O)O)CCN(CC(=O)O)CCN2CC(=O)O)cc1)C(=O)O)C(=O)O (stereo partly drawn) [Ligand L8, (13S,17S)-8-(4-bromobenzyl)-7,15-dioxo-1-((4-((1,4,7,10-tetrakis(carboxymethyl)-1,4,7,10-tetraazacyclododecan-2-yl)methyl)phenyl)amino)-1-thioxo-2,8,14,16-tetraazanonadecane-13,17,19-tricarboxylic acid]
- specific internalization [3]: 20.06 % IA/10^6 cells
- Ki ([2]; Table 6, given as range): 0.08 to 0.16 nM

Structure (SMILES): O=C(O)CC[C@H](NC(=O)N[C@@H](CCCCN(Cc1ccc(Br)cc1)C(=O)CCCCNC(=O)CCC(C(=O)O)N1CCN(CC(=O)O)CCN(CC(=O)O)CCN(CC(=O)O)CC1)C(=O)O)C(=O)O (stereo partly drawn) [Ligand L9, (3S,7S)-12-(4-Bromobenzyl)-5,13,19-trioxo-22-(4,7,10-tris(carboxymethyl)-1,4,7,10-tetraazacyclododecan-1-yl)-4,6,12,18-tetraazadocosane-1,3,7,22-tetracarboxylic acid]
- specific internalization [3]: 7.80 % IA/10^6 cells
- Ki ([2]; Table 6, given as range): 0.02 to 0.05 nM

Structure (SMILES): O=C([O-])CN1CCN(CC(=O)[O-])CCN(CC(=O)NCCCCC(=O)N(CCCC[C@H](NC(=O)N[C@@H](CCC(=O)O)C(=O)O)C(=O)O)Cc2ccc(Br)cc2)CCN(CC(=O)[O-])CC1.[177Lu+3] [^177Lu-L1]
- Cell uptake PC3 PIP ([3]; 1 h): 32.1 ± 0.1 % incubated dose per 1 x 10^6 cells
- PC3 PIP cell Int (internalization) ([3]; 1 h): 18.8 ± 0.8 % incubated dose per 1 x 10^6 cells
- Blockade PC3 PIP ([3]; 1 h, ZJ43 10 μM): 0.2 ± 0.0 % incubated dose per 1 x 10^6 cells
- total uptake within the PSMA(+) PC3 PIP cells ([3]; 1 h to 24 h): ~30 % of the incubated dose
- Cell uptake PC3 PIP ([3]; 2 h): 36.7 ± 0.5 % incubated dose per 1 x 10^6 cells
- PC3 PIP, line without name (position of cell internalization) ([3]; 2 h): 22.0 ± 0.6 % incubated dose per 1 x 10^6 cells
- Cell uptake PC3 PIP ([3]; 4 h): 39.1 ± 0.5 % incubated dose per 1 x 10^6 cells
- PC3 PIP cell int (internalization) ([3]; 4 h): 26.6 ± 1.2 % incubated dose per 1 x 10^6 cells
- Cell uptake PC3 PIP ([3]; 24 h): 46.2 ± 0.2 % incubated dose per 1 x 10^6 cells
- PC3 PIP cell int (internalization) ([3]; 24 h): 24.6 ± 0.2 % incubated dose per 1 x 10^6 cells
- Median survival After 8 weeks post-treatment ([4]; 111 MBq): Not reached
- Mouse death (number of mice) ([4]; 111 MBq, up to week 8 post-treatment): Death 1
- Tumor disappear (number of mice) ([4]; 111 MBq, week 8 post-treatment): disappear 7
- Average final body weight ([4]; single i.v. dose 111 MBq (3 mCi)): 26.1 ± 1.4 gram
- radiation nephropathy at necropsy [5]: did not reveal any radiation nephropathy
- Cell uptake PC3 flu ([6]; 1 h): 0.2 ± 0.0 % incubated dose per 1 x 10^6 cells
- Cell uptake PC3 flu ([6]; 2 h): 0.1 ± 0.0 % incubated dose per 1 x 10^6 cells
- Cell uptake PC3 flu ([6]; 4 h): 0.1 ± 0.0 % incubated dose per 1 x 10^6 cells
- Cell uptake PC3 flu ([6]; 24 h): 0.2 ± 0.1 % incubated dose per 1 x 10^6 cells

Structure (SMILES): O=C([O-])CN1CCN(CC(=O)[O-])CCN(CC(=O)O)C(Cc2ccc(NC(=S)NCCCCC(=O)N(CCCC[C@H](NC(=O)N[C@@H](CCC(=O)O)C(=O)O)C(=O)O)Cc3ccc(Br)cc3)cc2)CN(CC(=O)[O-])CC1.[177Lu+3] (stereo partly drawn) [^177Lu-L8]
- fold higher internalization compared to 177Lu-7 ([3]; all time-points up to 24 h): > 1.5 fold
- mice with tumor growth with relative volume>5 after 8 weeks ([4]; 111 MBq, n=10): only two mice
- tumor-free survival of remaining treated mice ([4]; 111 MBq, n=10): 10 months
- unexpected death of mice (used for SPECT/CT imaging) ([4]; 111 MBq, n=10): three mice
- D0 (37% survival) ([7]; 48 h incubation): 0.3-0.6 μCi/mL
- Cell surviving fraction ([7]; incubated for 2 h and 24 h): > 0.8
- PSMA(+) PC3 PIP tumor uptake ([8]; 2 h): 55.4±7.2 % ID/g
- PSMA(+) PC3 PIP tumor uptake ([8]; 24 h post-injection): 40.6±7.0 % ID/g
- PSMA(+) PC3 PIP tumor uptake ([8]; 48 h): 27.0±7.0 % ID/g
- PSMA(+) PC3 PIP tumor uptake ([8]; fourth time point, time not given): 24.9±2.3 % ID/g

Structure (SMILES): O=C([O-])CN1CCN(CC(=O)[O-])CCN(C(CCC(=O)NCCCCC(=O)N(CCCC[C@H](NC(=O)N[C@@H](CCC(=O)O)C(=O)O)C(=O)O)Cc2ccc(Br)cc2)C(=O)O)CCN(CC(=O)[O-])CC1.[177Lu+3] (stereo partly drawn) [^177Lu-L9]
- cell uptake and internalization [3]: ~70%
- effect of self-blockade on tumor uptake [9]: significant tumor uptake blockade
- Kidney uptake ([8]; 2 h): 149.7±32.0 % ID/g
- Kidney uptake ([8]; 24 h (so in the source)): 5.9±2.7 % ID/g
- fold renal clearance ([8]; within 24 h): ~30 fold
